Experimental data as given in patent US4987258A, “4,4'-diaminodiphenyl compounds, process for their preparation and their use” (Hoechst Aktiengesellschaft, priority 1987, dated 1991).

These compounds were tested on Salmonella typhimurium (strains TA 98, TA 100, TA 1535, TA 1537, TA 1538) (assay: Ames mutagenicity test with Salmonella typhimurium in the absence and presence of S-9-mix). Conditions: not given.
Type: cell-based
Experimental: The examples below will describe the invention in more detail. The mutagenicity test was carried out, following Ames, with Salmonella typhimurium (strains TA 98, TA 100, TA 1535, TA 1537, TA 1538) in the absence and presence of S-9-mix (B. N. Ames et al., Mut. Res. Vol. 31, p. 347-364 (1975)).
For `CCC(C)c1cc(-c2ccc(N)c(C(C)CC)c2)ccc1N` (stereo not shown), the Ames test was “negative”. In the case of `CCCc1cc(-c2ccc(N)c(CCC)c2)ccc1N` [Example 4], the Ames test is reported as “negative”. For `CCCCc1cc(-c2ccc(N)c(CCCC)c2)ccc1N` [Example 5], the Ames test was “negative”. For `CC(C)Cc1cc(-c2ccc(N)c(CC(C)C)c2)ccc1N` [Example 6], the Ames test was “negative”. For `CCCOc1cc(-c2ccc(N)c(OCCC)c2)ccc1N` [Example 8], the Ames test was “negative”. For `CC(C)Oc1cc(-c2ccc(N)c(OC(C)C)c2)ccc1N` [Example 9], the Ames test was “negative”. With `CCC(C)Oc1cc(-c2ccc(N)c(OC(C)CC)c2)ccc1N` (stereo not shown) [Example 10] the Ames test was “negative”.

Same assay, conditions: Examples 1-3
`CC(C)c1cc(-c2ccc(N)c(C(C)C)c2)ccc1N` [Example 1, 3,3-diisopropylbenzidine dichlorohydrate] was tested, and the Ames mutagenicity test was “negative”. With `CC(C)COc1cc(-c2ccc(N)c(OCC(C)C)c2)ccc1N` [Example 2, 3,3'-diisobutoxybenzidine] the Ames mutagenicity test was “negative”. `COCCOc1cc(-c2ccc(N)c(OCCOC)c2)ccc1N` [Example 3, 3,3'-di(2-methoxyethoxy)-benzidine] was tested, and the Ames mutagenicity test was “negative”.
